US20260347364A1, “PYRAZOLO[4,3-F]QUINAZOLINE DERIVATIVES AS MODULATORS OF G12D MUTANT KRAS USEFUL FOR THE TREATMENT OF CANCER” (JAZZ PHARMACEUTICALS IRELAND LTD., priority 2023, published 2026)

How the values were obtained:
[1] = biological target: T1, KRAS WT (Homo sapiens, UniProt P01116); experiment: HTRF nucleotide exchange assay, KRAS WT; assay type: biochemical; details: class symbols; for IC50: HTRF nucleotide exchange assay (NEA)
T1 construct: aa1-188 KRAS WT

[2] = biological target: T2, KRAS G12D (Homo sapiens, UniProt P01116, G12D); experiment: HTRF nucleotide exchange assay, KRAS G12D; assay type: biochemical; details: class symbols; for IC50: HTRF nucleotide exchange assay (NEA)
T2 construct: aa1-188 KRAS WT, HRAS WT, NRAS WT, or KRAS containing the G12D

Compound | IC50 [1] [nM] | IC50 [2] [nM] | KRAS^WT NEA [1] | KRAS^G12D NEA [2]
CCc1c(F)ccc2cc(O)cc(-c3cc4nc(OC[C@@]56CCCN5C[C@H](F)C6)nc(N5CCCn6nccc6C5)c4c4cn(C)nc34)c12 [Example 59, 5-ethyl-6-fluoro-4-[2-methyl-7-[[(2R,8S)-2-fluoro-1,2,3,5,6,7-hexahydropyrrolizin-8-yl]methoxy]-9-(4,6,7,8-tetrahydropyrazolo[1,5-a][1,4]diazepin-5-yl)pyrazolo[4,3-f]quinazolin-4-yl]naphthalen-2-ol] | 10 to 100 | ≤ 10 | – | –
Cc1cc2[nH]ncc2c(-c2cc3nc(OC[C@@]45CCCN4C[C@H](F)C5)nc(N4CCCn5nc(C(=O)N(C)C)cc5C4)c3c3cn(C)nc23)c1C [Example 60, 5-[4-(5,6-dimethyl-1H-indazol-4-yl)-2-methyl-7-[[(2R,8S)-2-fluoro-1,2,3,5,6,7-hexahydropyrrolizin-8-yl]methoxy]pyrazolo[4,3-f]quinazolin-9-yl]-N,N-dimethyl-4,6,7,8-tetrahydropyrazolo[1,5-a][1,4]diazepine-2-carboxamide] | 100 to 10000 | 10 to 100 | – | –
CN(C)C(=O)c1cc2n(n1)CCCN(c1nc(OC[C@@]34CCCN3C[C@H](F)C4)nc3cc(-c4cc(O)c(F)c5ccccc45)c4nn(C)cc4c13)C2 [Example 61, 5-[4-(4-fluoro-3-hydroxy-1-naphthyl)-2-methyl-7-[[(2R,8S)-2-fluoro-1,2,3,5,6,7-hexahydropyrrolizin-8-yl]methoxy]pyrazolo[4,3-f]quinazolin-9-yl]-N,N-dimethyl-4,6,7,8-tetrahydropyrazolo[1,5-a][1,4]diazepine-2-carboxamide] | 100 to 10000 | 10 to 100 | – | –
CN(C)C(=O)c1cc2n(n1)CCCN(c1nc(OC[C@@]34CCCN3C[C@H](F)C4)nc3cc(-c4cc(O)ccc4C#N)c4nn(C)cc4c13)C2 [Example 62] | 100 to 10000 | 10 to 100 | – | –
CCc1c(F)ccc2cccc(-c3cc4nc(OC[C@@]56CCCN5C[C@H](F)C6)nc(N5CCCn6nc(C(=O)N(C)C)cc6C5)c4c4cn(C)nc34)c12 [Example 63, 5-[4-(8-ethyl-7-fluoro-1-naphthyl)-2-methyl-7-[[(2R,8S)-2-fluoro-1,2,3,5,6,7-hexahydropyrrolizin-8-yl]methoxy]pyrazolo[4,3-f]quinazolin-9-yl]-N,N-dimethyl-4,6,7,8-tetrahydropyrazolo[1,5-a][1,4]diazepine-2-carboxamide] | 10 to 100 | ≤ 10 | – | –
C#Cc1c(F)ccc2cc(O)cc(-c3cc4nc(OC[C@@]56CCCN5C[C@H](F)C6)nc(N5CCCn6nc(C(=O)N(C)C)cc6C5)c4c4cn(C)nc34)c12 [Example 65, 5-[4-(8-ethynyl-7-fluoro-3-hydroxy-1-naphthyl)-2-methyl-7-[[(2R,8S)-2-fluoro-1,2,3,5,6,7-hexahydropyrrolizin-8-yl]methoxy]pyrazolo[4,3-f]quinazolin-9-yl]-N,N-dimethyl-4,6,7,8-tetrahydropyrazolo[1,5-a][1,4]diazepine-2-carboxamide] | ≤ 10 | ≤ 10 | – | –
CCC1CCCc2cc(O)cc(-c3cc4nc(OC[C@@]56CCCN5C[C@H](F)C6)nc(N5CCCOCC5)c4c4cn(C)nc34)c21 (stereo partly drawn) [Example 66, 1-ethyl-8-[2-methyl-9-(1,4-oxazepan-4-yl)-7-[[(2R,8S)-2-fluoro-1,2,3,5,6,7-hexahydropyrrolizin-8-yl]methoxy]pyrazolo[4,3-f]quinazolin-4-yl]tetralin-6-ol] | 10 to 100 | 10 to 100 | – | –
CCc1c(F)ccc2cc(O)cc(-c3cc4nc(OCC5(CN6CCOCC6)CC5)nc(N5CCCn6nc(C(=O)N(C)C)cc6C5)c4c4cn(C)nc34)c12 [Example 69, 5-[4-(8-ethyl-7-fluoro-3-hydroxy-1-naphthyl)-2-methyl-7-[[1-(morpholinomethyl)cyclopropyl]methoxy]pyrazolo[4,3-f]quinazolin-9-yl]-N,N-dimethyl-4,6,7,8-tetrahydropyrazolo[1,5-a][1,4]diazepine-2-carboxamide] | 10 to 100 | ≤ 10 | – | –
CCc1c(F)ccc2cc(O)cc(-c3cc4nc(OC[C@@H]5CCN5C)nc(N5CCCn6nc(C(=O)N(C)C)cc6C5)c4c4cn(C)nc34)c12 [Example 70] | 10 to 100 | ≤ 10 | – | –
CCc1c(F)ccc2cc(O)cc(-c3cc4nc(OCC5(CN6CCC[C@H]6C(F)(F)F)CC5)nc(N5CCCn6nc(C(=O)N(C)C)cc6C5)c4c4cn(C)nc34)c12 [Example 71] | – | – | D (<49% inhibition at 10 μM) | D (<49% inhibition at 10 μM)
CCc1c(F)ccc2cc(O)cc(-c3cc4nc(OC[C@@]56CCCN5C[C@H](F)C6)nc(N5CCCn6nc(C)cc6C5)c4c4cn(C)nc34)c12 [Example 72] | 10 to 100 | ≤ 10 | – | –
CCc1c(F)ccc2cc(O)cc(-c3cc4nc(OC[C@@]56CCCN5C[C@H](F)C6)nc(N5CCCn6nc(C#N)cc6C5)c4c4cn(C)nc34)c12 [Example 73, 5-[4-(8-ethyl-7-fluoro-3-hydroxy-1-naphthyl)-7-[[(2R,8S)-2-fluoro-1,2,3,5,6,7-hexahydropyrrolizin-8-yl]methoxy]-2-methyl-pyrazolo[4,3-f]quinazolin-9-yl]-4,6,7,8-tetrahydropyrazolo[1,5-a][1,4]diazepine-2-carbonitrile] | 10 to 100 | ≤ 10 | – | –
Cc1cc2[nH]ncc2c(-c2cc3nc(OC[C@@]45CCCN4C[C@H](F)C5)nc(N4CCCn5nc(C(=O)N(C)C)cc5C4)c3c3cn(C)nc23)c1C1CC1 [Example 74, 5-[4-(5-cyclopropyl-6-methyl-1H-indazol-4-yl)-2-methyl-7-[[(2R,8S)-2-fluoro-1,2,3,5,6,7-hexahydropyrrolizin-8-yl]methoxy]pyrazolo[4,3-f]quinazolin-9-yl]-N,N-dimethyl-4,6,7,8-tetrahydropyrazolo[1,5-a][1,4]diazepine-2-carboxamide] | 10 to 100 | ≤ 10 | – | –
CN(C)C(=O)c1cc2n(n1)CCCN(c1nc(OC[C@@]34CCCN3C[C@H](F)C4)nc3cc(-c4cccc5sc(N)c(C#N)c45)c4nn(C)cc4c13)C2 [Example 76, 5-[4-(2-amino-3-cyano-benzothiophen-4-yl)-7-[[(2R,8S)-2-fluoro-1,2,3,5,6,7-hexahydropyrrolizin-8-yl]methoxy]-2-methyl-pyrazolo[4,3-f]quinazolin-9-yl]-N,N-dimethyl-4,6,7,8-tetrahydropyrazolo[1,5-a][1,4]diazepine-2-carboxamide] | 10 to 100 | ≤ 10 | – | –
Cc1cc(N)nc(-c2cc3nc(OC[C@@]45CCCN4C[C@H](F)C5)nc(N4CCCn5nc(C(=O)N(C)C)cc5C4)c3c3cn(C)nc23)c1C(F)(F)F [Example 77, 5-[4-[6-amino-4-methyl-3-(trifluoromethyl)-2-pyridyl]-7-[[(2R,8S)-2-fluoro-1,2,3,5,6,7-hexahydropyrrolizin-8-cyl]methoxy]-2-methyl-pyrazolo[4,3-f]quinazolin-9-yl]-N,N-dimethyl-4,6,7,8-tetrahydropyrazolo[1,5-a][1,4]diazepine-2-carboxamide] | 100 to 10000 | 100 to 10000 | – | –
CCc1c(F)ccc2cc(O)cc(-c3cc4nc(OC[C@@]56CCCN5C[C@H](F)C6)nc(N5CCCn6nc(C(=O)N(C)C)cc6C5)c4c4cn(CC(F)(F)F)nc34)c12 [Example 78, 5-[4-(8-ethyl-7-fluoro-3-hydroxy-1-naphthyl)-7-[[(2R,8S)-2-fluoro-1,2,3,5,6,7-hexahydropyrrolizin-8-yl]methoxy]-2-(2,2,2-trifluoroethyl)pyrazolo[4,3-f]quinazolin-9-yl]-N,N-dimethyl-4,6,7,8-tetrahydropyrazolo[1,5-a][1,4]diazepine-2-carboxamide] | 100 to 10000 | ≤ 10 | – | –
CCc1c(F)ccc2cc(O)cc(-c3c(C)c4nc(OC[C@@]56CCCN5C[C@H](F)C6)nc(N5CCCOCC5)c4c4cn(C)nc34)c12 [Example 79, 4-[2,5-dimethyl-9-(1,4-oxazepan-4-yl)-7-[[(2R,8S)-2-fluoro-1,2,3,5,6,7-hexahydropyrrolizin-8-yl]methoxy]pyrazolo[4,3-f]quinazolin-4-yl]-5-ethyl-6-fluoro-naphthalen-2-ol] | ≤ 10 | ≤ 10 | – | –
CCc1c(F)ccc2cc(O)cc(-c3c(C)c4nc(OC[C@@]56CCCN5C[C@H](F)C6)nc(N5CCCn6nc(C(=O)N(C)C)cc6C5)c4c4cn(C)nc34)c12 [Example 80, 5-[4-(8-ethyl-7-fluoro-3-hydroxy-1-naphthyl)-2,5-dimethyl-7-[[(2R,8S)-2-fluoro-1,2,3,5,6,7-hexahydropyrrolizin-8-yl]methoxy]pyrazolo[4,3-f]quinazolin-9-yl]-N,N-dimethyl-4,6,7,8-tetrahydropyrazolo[1,5-a][1,4]diazepine-2-carboxamide] | ≤ 10 | ≤ 10 | – | –
CN(C)C(=O)c1cc2n(n1)CCCN(c1nc(OC[C@@]34CCCN3C[C@H](F)C4)nc3cc(-c4ccc(F)c5sc(N)c(C#N)c45)c4nn(C)cc4c13)C2 [Example 81, 5-[4-(2-amino-3-cyano-7-fluoro-benzothiophen-4-yl)-7-[[(2R,8S)-2-fluoro-1,2,3,5,6,7-hexahydropyrrolizin-8-yl]methoxy]-2-methyl-pyrazolo[4,3-f]quinazolin-9-yl]-N,N-dimethyl-4,6,7,8-tetrahydropyrazolo[1,5-a][1,4]diazepine-2-carboxamide] | 10 to 100 | ≤ 10 | – | –
CCc1c(F)ccc2c(F)c(O)cc(-c3cc4nc(OC[C@@]56CCCN5C[C@H](F)C6)nc(N5CCCn6nc(C(=O)N(C)C)cc6C5)c4c4cn(C)nc34)c12 [Example 82, 5-[4-(8-ethyl-4,7-difluoro-3-hydroxy-1-naphthyl)-2-methyl-7-[[(2R,8S)-2-fluoro-1,2,3,5,6,7-hexahydropyrrolizin-8-yl]methoxy]pyrazolo[4,3-f]quinazolin-9-yl]-N,N-dimethyl-4,6,7,8-tetrahydropyrazolo[1,5-a][1,4]diazepine-2-carboxamide] | ≤ 10 | ≤ 10 | – | –
